# Measurements published in patent publication US5696138A, “Urea derivatives and their use” (priority 1993, dated 1997).
# Key:
# BK channel [1] = target: BK channel (Bos taurus, UniProt Q28204); assay: Single channel experiments, cultured bovine aortic smooth muscle cells; type: cell-based
# Method: (§1) All experiments were performed with patch-clamp technique (Hamill et al., Pflugers Arch. 391, 85-100 (1981)). The ion composition of the internal solution was (in mM) 140 KCl, 1 CaCl2, 1 MgCl2, 2 EGTA, 10 HEPES and the external solution contained 140 NaCl, 4 KCl, 2 CaCl2, 1 MgCl2 and 10 HEPES.
# The BK channels were also activated by N-(3-(trifluoromethyl)phenyl)-N'-(2-hydroxy-5-chlorophenyl) urea and N-phenyl-N'-(2-hydroxy-5-chlorophenyl) urea at concentrations equal or greater than 3 μM and by N-(3-(trifluoromethyl)phenyl)-N'-(2-hydroxy-5-(trifluoromethyl)phenyl) urea at concentrations greater than 10 μM.
# BK channel [2] = assay: Single channel experiments, inside-out patches of human coronary artery smooth muscle cell membrane; type: cell-based; details: 1-10 μM
# Method: as §1
# In inside-out patches of human coronary artery smooth muscle cell membrane single BK channels were activated by for example N-(3-(trifluoromethyl)phenyl)-N'-(2-hydroxy-5-chlorophenyl) urea (1-10 μM).
# [3] = test system: cocaine induced hypermotility; assay: Cocaine motility test; type: in vivo; details: 10-30 mg/kg i.p. 15 min before 25 mg/kg cocaine; female NMRI mice; motility over 120 min
# Method: The compound, N-(3-(trifluoromethyl)phenyl)-N'-(2-hydroxy-5-chlorophenyl) urea, has been studied in the cocaine motility test. Cocaine induces hypermotility due to an inhibition of dopamine reuptake. The test is recognized as a test predicting anti-psychotic activity.
# Method: Two female NMRI mice (20-25 g) are placed in each test box (normal transparent plexiglas cage, w, l, h=21×39×19 cm) in the test room for at least 16 hours with food and water ad libitum before the test in order for the animals to habituate to the situation. The test compound is administered i.p. 15 min before saline or 25 mg/kg cocaine jip. to 32 mice (16 boxes) per dose. Food and water are withdrawn, and the motility is measured as the number of interrupted infrared photo-beams (8 per box placed 5 cm apart and 3 cm over the bottom of the cage) for the next 120 min.
# [4] = test system: acetylcholine-contracted guinea-pig ileum; assay: Guinea-pig ileum experiment (relaxation of acetylcholine-contracted ileum); details: 3-30 μM; ileum precontracted with acetylcholine 0.015-5.0 μM
# Method: The compound, N-(3-(trifluoromethyl)phenyl)-N'-(2-hydroxy-5-chlorophenyl) urea, has been studied for its ability to relax acetylcholine-contracted guinea-pig ileum. The smooth muscle cells of the ileum express many BK channels and the model predicts relaxing effects on the gastrointestinal or urogenital tracts.
# Method: Ileum from guinea-pigs are isolated and mounted in an isometric contraction chamber. It is bathed in a physiological Krebs solution at 98° F. The ileum is precontracted with increasing concentrations of acetylcholine (0.015-5.0 μM). The contractions are reversed by including the compound in the bathing solution.
# BK currents = BK currents (Bos taurus, UniProt Q28204); assay: Whole cell recordings (patch-clamp, voltage clamp) of membrane currents in calf aortic smooth muscle cells; type: cell-based; details: 1-10 μM in the bath
# BK currents, sequence (Q28067 whole entry): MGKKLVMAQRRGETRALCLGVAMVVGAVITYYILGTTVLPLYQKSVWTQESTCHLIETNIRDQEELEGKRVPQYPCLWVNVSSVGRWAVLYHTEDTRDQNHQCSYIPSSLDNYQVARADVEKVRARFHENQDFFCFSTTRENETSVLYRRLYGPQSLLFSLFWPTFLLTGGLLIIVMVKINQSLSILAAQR
# BK currents, sequence (Q28204 whole entry): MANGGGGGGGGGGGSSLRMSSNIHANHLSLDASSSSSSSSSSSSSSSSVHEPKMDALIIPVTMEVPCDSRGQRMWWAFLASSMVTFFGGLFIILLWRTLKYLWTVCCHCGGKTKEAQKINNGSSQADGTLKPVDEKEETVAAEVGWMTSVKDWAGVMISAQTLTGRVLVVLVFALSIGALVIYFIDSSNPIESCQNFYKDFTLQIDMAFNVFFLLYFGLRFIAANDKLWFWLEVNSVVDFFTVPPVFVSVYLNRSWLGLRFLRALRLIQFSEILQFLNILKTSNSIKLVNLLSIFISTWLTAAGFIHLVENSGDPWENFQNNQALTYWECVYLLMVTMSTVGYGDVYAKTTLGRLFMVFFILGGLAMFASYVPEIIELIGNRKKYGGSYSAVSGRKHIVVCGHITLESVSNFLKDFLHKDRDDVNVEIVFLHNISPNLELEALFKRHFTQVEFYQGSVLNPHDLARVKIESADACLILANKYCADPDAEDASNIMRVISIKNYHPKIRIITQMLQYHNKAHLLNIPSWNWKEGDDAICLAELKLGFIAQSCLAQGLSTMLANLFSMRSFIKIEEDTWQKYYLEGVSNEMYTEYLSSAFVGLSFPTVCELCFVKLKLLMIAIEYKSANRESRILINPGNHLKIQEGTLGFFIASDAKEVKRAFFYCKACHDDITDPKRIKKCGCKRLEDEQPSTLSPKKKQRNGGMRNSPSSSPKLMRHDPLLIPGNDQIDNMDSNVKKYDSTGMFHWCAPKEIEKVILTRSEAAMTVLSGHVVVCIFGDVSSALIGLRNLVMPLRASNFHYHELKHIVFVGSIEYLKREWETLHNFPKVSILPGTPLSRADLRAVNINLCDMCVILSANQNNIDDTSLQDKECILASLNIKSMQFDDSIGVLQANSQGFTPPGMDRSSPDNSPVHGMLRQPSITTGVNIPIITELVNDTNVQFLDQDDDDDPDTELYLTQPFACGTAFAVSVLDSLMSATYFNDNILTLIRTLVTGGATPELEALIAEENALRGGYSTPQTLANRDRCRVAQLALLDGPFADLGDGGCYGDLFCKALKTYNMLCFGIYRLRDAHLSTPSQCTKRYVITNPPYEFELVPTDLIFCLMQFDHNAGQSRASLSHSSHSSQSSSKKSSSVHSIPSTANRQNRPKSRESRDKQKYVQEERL
# Method: as §1
# The membrane currents of calf aortic smooth muscle cells were determined in whole-cell recordings using voltage clamp mode (HEKA EPC-9 patch-clamp amplifier).
# BK channel (Bos taurus, UniProt Q28204), sequence (Q28204 whole entry): as above
# BK channel (Bos taurus, UniProt Q28204), sequence (Q28067 whole entry partner): as the sequence (Q28067 whole entry) above
smiles,measurement,setting,value
O=C(Nc1cccc(C(F)(F)F)c1)Nc1cc(C(F)(F)F)ccc1O [N-(3-(trifluoromethyl)phenyl)-N'-(2-hydroxy-5-(trifluoromethyl)phenyl) urea],concentrations at which the BK channels were activated,BK channel [1],greater than 10 μM
O=C(Nc1ccccc1)Nc1cc(Cl)ccc1O [N-phenyl-N'-(2-hydroxy-5-chlorophenyl) urea],concentrations at which the BK channels were activated,BK channel [1],≥ 3 µM
O=C(Nc1cccc(C(F)(F)F)c1)Nc1cc(Cl)ccc1O [N-(3-(trifluoromethyl)phenyl)-N'-(2-hydroxy-5-chlorophenyl) urea],concentrations at which the BK channels were activated,BK channel [1],≥ 3 µM
same,activation of the BK channel,BK channel [1]; 1 μM,significantly activated
same,activation of single BK channels,BK channel [2],activated
same,increase of the open probability of the BK channel,BK channel [2],several hundred
same,antagonism of cocaine induced hypermotility,[3],antagonizes cocaine induced hypermotility
same,relaxation of acetylcholine-contracted guinea-pig ileum,[4],relaxes the ileum in a dose-dependent way
same,activation of BK currents (blockable by charybdotoxin),BK currents,specifically activated BK currents
same,increase of the outward current,BK currents,up to 10 times
same,shift of the activation curve towards negative membrane potentials,BK currents,more than -60 mV
